This is an account of results in patent publication US20260365653A1, “IRREVERSIBLE MUTEGFR INHIBITORS” (Bayer Aktiengesellschaft, priority 2022, published 2026).

Test [1] relates to BA/F3 (EGFR D770_N771 insSVD T790M) cells. In words: Ba/F3-EGFR-insSVD T790M cell survival assay (Cell Titer-Glo). Format: cell-based. As to conditions: Ba/F3 EGFR-D770-N771ins_SVD, 48 h. On the procedure:
Cellular Data Description (WT, insSVD, insSVD T790M) 293T cells from ATCC were transfected with pBABEpuro expression constructs for WT EGFR or EGFR-insSVD, or EGFR-insSVD T790M, and pCL-Eco packaging vector using Fugene-6 transfection reagent from Promega. Plates were incubated at 37° C. for 48 h. Retrovirus was harvested by filtering the media supernatant through a 0.45 μm filter.
Ba/F3 cells purchased from DSMZ were grown in RPMI+10% FBS+10 ng/ml IL-3 and infected with filtered retroviral supernatant at a 1:2 dilution. Polybrene was added to a concentration of 8 μg/mL, plates were spun for 90 min, and incubated for 16 h at 37° C. 2 μg/mL puromycin was added to the infected cells 24 h after infection and cells were continually grown in the presence of puromycin and 10 ng/ml IL-3. Following stably expressing Ba/F3 cell lines were generated: Ba/F3-EGFR-WT, Ba/F3-EGFR-insSVD, Ba/F3-EGFR-insSVD T790M, (Ba/F3-vector-control).
For cell survival assays, Ba/F3 cells were grown to a density of 1-2 million cells per mL, spun down and resuspended in media without IL-3, and replated at a concentration of 200,000-500,000 cells per mL. The cells ectopically expressing WT EGFR, EGFR-insSVD, or EGFR-insSVD T790M were plated with 10 ng/ml Millipore Culture grade EGF. The cells ectopically expressing pBABEpuro empty vector were plated with 10 ng/mL IL-3.
2 days later, cells were plated in 50 µL in a 384 well plate at a concentration of 4000 cells per well for cells assayed in the absence of IL-3 and 2000 cells per well for cells assayed in the presence of IL-3. 100 nL of compound was added to each well using a 100 nL pin head, and plates were incubated at 37° C. for 48 h.
Cell viability was measured by adding 20 μL of Cell Titer-Glo Luminescent Cell Viability Reagent diluted 1:3 in PBS. Plates were sealed with Perkin Elmer Top-Seal, inverted several times to mix, and immediately centrifuged at 1000 rpm for 2 min. Plates were incubated in low light conditions for 8-10 min and luminescence was measured.

Test [2] concerns the target T1, mutEGFR (D770_N771insSVD) (Homo sapiens, UniProt P00533, DUP768-770).
T1 construct: GST-EGFR #3 (SVD between D770 and N771); made in house; host or cells: Sf9 insect cells (baculovirus)
In words: Exon20-Mutant-EGFR (D770_N771insSVD) kinase assay (TR-FRET). Type of test: biochemical.

Test [3] concerns the target T2, mutEGFR (D770_N771insNPG, T790) (Homo sapiens, UniProt P00533, INS770NPG/T790M).
T2 construct: exact insNPG construct not described; in-house EGFR proteins were N-terminal GST fusions from baculovirus/insect cells (borders R669-A1210 given only for WT, insSVD, insASV)
In words: mutEGFR (D770_N771insNPG, T790) kinase assay. Format: biochemical. An excerpt: The different EGFR proteins used in the biochemical kinase activity inhibition assays were generated inhouse by expression in insect cells using Baculo Virus system and subsequent purification as described in the following paragraphs.
The cDNAs encoding the various protein sequences from human EGFR human (P00533) were optimized for expression in eukaryotic cells and synthesized by the GeneArt Technology at Life Technologies.

In a further test the test system is BA/F3 (insSVD) cells. In words: Ba/F3-EGFR-insSVD cell survival assay (Cell Titer-Glo). Type of test: cell-based. Summed up:
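CellTiter-Glo luminescence read after 48 h compound exposure at 37° C. Cells: IL-3-independent Ba/F3 lines transduced with EGFR-insSVD or EGFR-insSVD T790M, maintained on 10 ng/ml EGF and seeded at 4000 per well.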

The mark [4] stands for this setting: Table 3a, cell survival, Cell Titer-Glo, with 10 ng/ml EGF, without IL-3.
[5] abbreviates: mutEGFR (D770_N771insSVD) kinase assay IC50, Table 2a, D770_N771insSVD, 2 mM ATP.
[6] abbreviates: Mus musculus, BaF3, 48 h, Table 3a, cell survival, Cell Titer-Glo, with 10 ng/ml EGF, without IL-3.
Where [7] appears, read: Table 3b, Ba/F3 EGFR-insSVD T790M.
Setting [8] is: mutEGFR (D770_N771insSVD) kinase assay IC50, Table 2b (from US Priority Patent Application), mutEGFR D770_N771insSVD.
[9] abbreviates: Table 2b (from US Priority Patent Application), mutEGFR D770_N771insNPG.
Where [10] appears, read: Mus musculus, BaF3, 48 h, Table 3b, Ba/F3 EGFR-insSVD.

T1 sequence (P00533 with tags, fused parts or gaps DUP768-770): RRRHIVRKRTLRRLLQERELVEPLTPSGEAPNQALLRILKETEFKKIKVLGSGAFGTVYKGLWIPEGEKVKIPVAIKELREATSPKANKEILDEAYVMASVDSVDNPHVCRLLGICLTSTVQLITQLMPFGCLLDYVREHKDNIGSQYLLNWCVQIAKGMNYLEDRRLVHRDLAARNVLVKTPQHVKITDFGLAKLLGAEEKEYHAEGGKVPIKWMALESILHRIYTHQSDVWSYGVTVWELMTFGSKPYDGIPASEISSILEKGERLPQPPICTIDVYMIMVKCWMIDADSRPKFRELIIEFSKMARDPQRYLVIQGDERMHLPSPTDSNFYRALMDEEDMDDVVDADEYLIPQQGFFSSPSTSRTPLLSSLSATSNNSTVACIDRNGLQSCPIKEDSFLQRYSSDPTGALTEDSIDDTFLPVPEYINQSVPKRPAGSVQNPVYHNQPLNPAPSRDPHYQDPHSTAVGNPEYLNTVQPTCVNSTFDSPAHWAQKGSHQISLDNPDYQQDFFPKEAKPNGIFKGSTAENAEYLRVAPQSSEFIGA
T2 sequence (P00533 with tags, fused parts or gaps INS770NPG/T790M limits assumed): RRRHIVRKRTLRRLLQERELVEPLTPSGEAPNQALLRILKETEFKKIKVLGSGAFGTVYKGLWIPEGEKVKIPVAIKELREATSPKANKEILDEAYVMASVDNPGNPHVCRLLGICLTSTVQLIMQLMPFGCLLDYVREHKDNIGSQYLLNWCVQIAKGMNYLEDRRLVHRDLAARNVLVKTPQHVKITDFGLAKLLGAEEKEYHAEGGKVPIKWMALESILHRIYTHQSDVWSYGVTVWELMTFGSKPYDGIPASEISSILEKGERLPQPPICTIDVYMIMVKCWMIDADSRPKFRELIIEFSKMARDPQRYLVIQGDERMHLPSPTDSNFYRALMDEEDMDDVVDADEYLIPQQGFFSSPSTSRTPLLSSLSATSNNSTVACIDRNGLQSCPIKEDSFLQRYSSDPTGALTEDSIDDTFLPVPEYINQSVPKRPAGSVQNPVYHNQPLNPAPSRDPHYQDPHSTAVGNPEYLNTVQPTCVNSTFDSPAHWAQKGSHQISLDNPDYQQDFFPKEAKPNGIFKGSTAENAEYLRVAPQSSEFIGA

As to `C=CC(=O)N1Cc2c(-c3ccncc3)c(-c3ccc(F)cc3)nn2C(CO)C1` (racemic) [Example 203, 1-[(7RS)-2-(4-fluorophenyl)-7-(hydroxymethyl)-3-(pyridin-4-yl)-6,7-dihydropyrazolo[1,5-a]pyrazin-5(4H)-yl]prop-2-en-1-one], the IC50 was found to be 108 nM in test [1] (setting [4]); 0.409 nM in test [2] (setting [5]); 1.42 nM in test [3] (Table 2a, D770_N771insNPG); 17.4 nM in the test on BA/F3 (insSVD) cells (setting [6]).
In the case of `C=CC(=O)N1C(C)c2c(-c3ccncc3)c(-c3ccc(Cl)cc3F)nn2C[C@@H]1C` (single isomer, unassigned; isomer 2) [Example 293], the IC50 in test [1] (setting [4]) was 9980 nM; in test [2] (setting [5]), 50.3 nM; in test [3] (Table 2a, D770_N771insNPG) it was 96 nM; in the test with BA/F3 (insSVD) cells (Table 3a, cell survival, Cell Titer-Glo, with 10 ng/ml EGF, without IL-3, 48 h), 380 nM.
As for `C=CC(=O)N1CCn2nc(-c3ccc(F)cc3)c(-c3ccncc3)c2C1` [Example 1, 1-[2-(4-fluorophenyl)-3-(pyridin-4-yl)-6,7-dihydropyrazolo[1,5-a]pyrazin-5(4H)-yl]prop-2-en-1-one], the IC50 in test [1] (setting [4]) came out at 119 nM; in test [1] (setting [7]), 119 nM; in test [2] (setting [5]), 0.618 nM; in test [2] (setting [8]), 0.618 nM; in test [3] (Table 2a, D770_N771insNPG), 0.953 nM; in test [3] (setting [9]), 0.953 nM. Also, the IC50 in the test on BA/F3 (insSVD) cells (setting [6]) and in the test on BA/F3 (insSVD) cells (setting [10]) was 34.6 nM throughout.
Consider `C=CC(=O)N1CCn2nc(-c3ccc(Cl)cc3)c(-c3ccncc3)c2C1` [Example 3, 1-[2-(4-chlorophenyl)-3-(pyridin-4-yl)-6,7-dihydropyrazolo[1,5-a]pyrazin-5(4H)-yl]prop-2-en-1-one], for which the IC50 in test [1] (setting [4]) came out at 108 nM; in test [1] (setting [7]), 108 nM; in test [2] (setting [5]), 0.139 nM; in test [2] (setting [8]), 0.139 nM; in test [3] (Table 2a, D770_N771insNPG) it was 0.324 nM; in test [3] (setting [9]) it was 0.324 nM. For the same compound, the IC50 in the test on BA/F3 (insSVD) cells (setting [6]) and with BA/F3 (insSVD) cells (setting [10]) was 13.2 nM throughout.
`C=CC(=O)N1CCn2nc(-c3cccc(OC)c3)c(-c3ccncc3)c2C1` [Example 5, 1-[2-(3-methoxyphenyl)-3-(pyridin-4-yl)-6,7-dihydropyrazolo[1,5-a]pyrazin-5(4H)-yl]prop-2-en-1-one]: the concentration for half-maximal inhibition (IC50) stood at 114 nM in test [1] (setting [4]); 114 nM in test [1] (setting [7]); 2.19 nM in test [2] (setting [5]); 2.19 nM in test [2] (setting [8]); 1.04 nM in test [3] (Table 2a, D770_N771insNPG); 1.04 nM in test [3] (setting [9]). Also, the IC50 with BA/F3 (insSVD) cells (setting [6]) and in the test on BA/F3 (insSVD) cells (setting [10]) was 80.5 nM throughout.
As to `CC(C)N(C)C/C=C/C(=O)N1CCn2nc(-c3ccc(F)cc3)c(-c3ccnc(NC(=O)C4CC4)c3)c2C1` [Example 6, N-{4-[2-(4-fluorophenyl)-5-{(2E)-4-[methyl(propan-2-yl)amino]but-2-enoyl}-4,5,6,7-tetrahydropyrazolo[1,5-a]pyrazin-3-yl]pyridin-2-yl}cyclopropanecarboxamide], the IC50 was 207 nM in test [1] (setting [4]); 207 nM in test [1] (setting [7]); 0.326 nM in test [2] (setting [5]); 0.326 nM in test [2] (setting [8]); 0.407 nM in test [3] (Table 2a, D770_N771insNPG); 0.407 nM in test [3] (setting [9]). The IC50 in the test with BA/F3 (insSVD) cells (setting [6]) and with BA/F3 (insSVD) cells (setting [10]) was 22.3 nM in each case.
As to `C=CC(=O)N1CCn2nc(-c3ccc(F)cc3)c(-c3ccnc(NC(=O)C4CC4)c3)c2C1` [Example 7, N-{4-[2-(4-fluorophenyl)-5-(prop-2-enoyl)-4,5,6,7-tetrahydropyrazolo[1,5-a]pyrazin-3-yl]pyridin-2-yl}cyclopropanecarboxamide], the half-inhibitory concentration (IC50) in test [1] (setting [4]) came to 60.1 nM; in test [1] (setting [7]), 60.1 nM; in test [2] (setting [5]) it was 0.209 nM; in test [2] (setting [8]), 0.209 nM; in test [3] (Table 2a, D770_N771insNPG), 0.408 nM; in test [3] (setting [9]) it was 0.408 nM. The IC50 in the test on BA/F3 (insSVD) cells (setting [6]) and in the test with BA/F3 (insSVD) cells (setting [10]) was 12.4 nM each time.
Turning to `C=CC(=O)N1CCn2nc(-c3ccc(F)cc3)c(-c3ccnc(N)c3)c2C1` [Example 10, 1-[3-(2-aminopyridin-4-yl)-2-(4-fluorophenyl)-6,7-dihydropyrazolo[1,5-a]pyrazin-5(4H)-yl]prop-2-en-1-one], the concentration for half-maximal inhibition (IC50) in test [1] (setting [4]) is 346 nM; in test [1] (setting [7]), 346 nM; in test [2] (setting [5]), 0.849 nM; in test [2] (setting [8]), 0.849 nM; in test [3] (Table 2a, D770_N771insNPG), 2.26 nM; in test [3] (setting [9]), 2.26 nM. Also, the IC50 in the test with BA/F3 (insSVD) cells (setting [6]) and with BA/F3 (insSVD) cells (setting [10]) was 46.5 nM each time.
For `C=CS(=O)(=O)N1CCn2nc(-c3ccc(F)cc3)c(-c3ccncc3)c2C1` [Example 14, 5-(ethenesulfonyl)-2-(4-fluorophenyl)-3-(pyridin-4-yl)-4,5,6,7-tetrahydropyrazolo[1,5-a]pyrazine], the half-maximal inhibitory concentration (IC50) stood at 983 nM in test [1] (setting [4]); 983 nM in test [1] (setting [7]); 0.406 nM in test [2] (setting [5]); 0.406 nM in test [2] (setting [8]); 0.867 nM in test [3] (Table 2a, D770_N771insNPG); 0.867 nM in test [3] (setting [9]). Moreover, the IC50 with BA/F3 (insSVD) cells (setting [6]) and with BA/F3 (insSVD) cells (setting [10]) was 760 nM each time.
Consider `CC(C)N(C)C/C=C/C(=O)N1CCn2nc(-c3ccc(F)cc3)c(-c3ccncc3)c2C1` [Example 18, (2E)-1-[2-(4-fluorophenyl)-3-(pyridin-4-yl)-6,7-dihydropyrazolo[1,5-a]pyrazin-5(4H)-yl]-4-[methyl(propan-2-yl)amino]but-2-en-1-one], for which the half-inhibitory concentration (IC50) in test [1] (setting [4]) was 9980 nM; in test [1] (setting [7]), 0.217 nM; in test [2] (setting [5]) it was 0.451 nM; in test [2] (setting [8]) it was 0.451 nM; in test [3] (Table 2a, D770_N771insNPG) it was 1.76 nM; in test [3] (setting [9]) it was 1.76 nM. Further, the IC50 in the test with BA/F3 (insSVD) cells (setting [6]) and in the test with BA/F3 (insSVD) cells (setting [10]) was 143 nM each time.
For `C=CC(=O)N1CCn2nc(-c3ccc(Cl)c(F)c3)c(-c3ccncc3)c2C1` [Example 36, 1-[2-(4-chloro-3-fluorophenyl)-3-(pyridin-4-yl)-6,7-dihydropyrazolo[1,5-a]pyrazin-5(4H)-yl]prop-2-en-1-one], the IC50 in test [1] (setting [4]) worked out at 126 nM; in test [2] (setting [5]), 0.321 nM; in test [3] (Table 2a, D770_N771insNPG), 1.13 nM; in the test on BA/F3 (insSVD) cells (setting [6]), 17.9 nM.
On to `C=CC(=O)N1CCn2nc(-c3ccc(Cl)cc3F)c(-c3ccncc3)c2C1` [Example 37, 1-[2-(4-chloro-2-fluorophenyl)-3-(pyridin-4-yl)-6,7-dihydropyrazolo[1,5-a]pyrazin-5(4H)-yl]prop-2-en-1-one], for which the IC50 in test [1] (setting [4]) was 104 nM; in test [2] (setting [5]), 0.258 nM; in test [3] (Table 2a, D770_N771insNPG) it was 0.658 nM; in the test on BA/F3 (insSVD) cells (setting [6]), 7.14 nM.
The like results for `C=CC(=O)N1CCn2nc(-c3ccc(Cl)c(Cl)c3)c(-c3ccncc3)c2C1` [Example 40, 1-[2-(3,4-dichlorophenyl)-3-(pyridin-4-yl)-6,7-dihydropyrazolo[1,5-a]pyrazin-5(4H)-yl]prop-2-en-1-one] were, in that order, 56 nM, 0.0982 nM, 0.148 nM and 14.9 nM.
The like results for `CN(C)CC#CC(=O)N1CCn2nc(-c3ccc(F)cc3)c(-c3ccncc3)c2C1` [Example 65, 4-(dimethylamino)-1-[2-(4-fluorophenyl)-3-(pyridin-4-yl)-6,7-dihydropyrazolo[1,5-a]pyrazin-5(4H)-yl]but-2-yn-1-one] were, in that order, 1010 nM, 0.382 nM, 0.952 nM and 15.3 nM.
